From article PMC8838521, “Antimicrobial, Cytotoxic and Mutagenic Activity of Gemini QAS Derivatives of 1,4:3,6-Dianhydro-L-iditol” (Molecules, 2022)
Counter-ions that a name gives are not always drawn. Like-named read-outs stand apart in the source and are kept apart here.

Experiments:
[1] = system: Candida albicans ATCC 10231; assay: Antimicrobial activity, microdilution MIC, C. albicans; type: cell-based; settings: for MIC: Candida albicans, ATCC10231, 24 h
Method: (§1) The antimicrobial potential of the tested agents was evaluated against two reference strains of bacteria: Staphylococcus aureus ATCC 25923 and Escherichia coli K12, two reference strains of pathogenic yeasts, Candida albicans ATCC10231 and Candida glabrata DSMZ11226, as well as 20 strains of clinical isolates of S. aureus collected from patients with skin and soft tissue infections (n = 8) and strains derived from subclinical bovine mastitis milk samples (n = 12). Four of these strains, two isolated from human infections and two isolated from bovine mastitis, were classified as MRSA (Methicillin-resistant Staphylococcus aureus). All of them were mecA positive and their methicillin resistance was confirmed with the disc diffusion assay. The remaining 16 strains were MSSA (Methicillin-sensitive Staphylococcus aureus). The assays were performed using a serial, two-fold dilution method in 96-well microtiter plates under conditions recommended by the Clinical and Laboratory Standards Institute (CLSI, Pittsburgh, PA, USA). The aim of this procedure was the determination of the MIC parameter (Minimum Inhibitory Concentration)—the minimum concentration of a tested agent capable to inhibit the growth of a specified strain of microorganism. The agents were solubilized in deionized, sterile water to a final concentration of […]. Subsequently, solutions were mixed (1:1 (v/v)) with 2 × concentrated liquid medium, Mueller-Hinton Broth 2—cation adjusted (MHB2) for evaluation of antibacterial activity and RPMI in the case of evaluation of the antifungal activity. […] Subsequently, the solutions were mixed with MHB2 or RPMI medium to get the final concentration of 8.192 mg/mL (8192 µg/mL). In the next step, the serial, two-fold dilutions of the tested agents (over the range of concentrations from 8192 to 8 µg/mL for reference strains of bacteria and yeasts and from 512 to 1.0 µg/mL for clinical isolates of S. aureus) were prepared in 96-well microtitration plates in the final volume of 100 μL of the appropriate medium.
(§2) The pure cultures of yeast strains were grown on the Sabouraud Dextrose Agar (SDA) for 18–24 h at 37 °C. Suspensions of the microorganisms were prepared by taking one loop of pure culture into sterile water and adjusting optical density to 0.1 at 660 nm and further 50-fold dilution in RPMI 1640 medium resulting in cells concentration of approximate 2 × 10^4 CFU/mL. One hundred μL of that suspension was inoculated to the wells of the microtitration plate containing appropriate dilutions of the agents. The positive growth control of each strain (both bacteria and yeasts) was performed in the wells without the tested substances. The negative control containing only the media was included in each assay. Microtiter plates were incubated at 37 °C for 24 h. Following the incubation period, determination of the MIC values of the tested agents was carried out by measuring the absorbance at 531 nm using a Victor^3 microplate reader (Perkin Elmer, Inc., Waltham, MA, USA). The lowest concentration of the agent causing inhibition of growth equal to or higher than 90% (MIC90) of growth control was taken as the MIC value. Each test was repeated three times.

[2] = system: Candida glabrata DSMZ 11226; assay: Antimicrobial activity, microdilution MIC, C. glabrata; type: cell-based; settings: for MIC: Nakaseomyces glabratus, DSMZ11226, 24 h
Method: as §1, §2

[3] = system: Staphylococcus aureus ATCC 25923; assay: Antimicrobial activity, microdilution MIC, S. aureus reference strain; type: cell-based; settings: for MIC: Staphylococcus aureus, ATCC25923, 24 h
Method: as §1
(§3) The pure bacterial cultures of (both the reference and clinical strains) were grown on the Mueller-Hinton Agar (MHA) for 18–24 h at 37 °C. A small amount of the biomass of the culture of each strain of microorganisms was suspended in the sterile PBS (phosphate buffered saline, pH 7.4 at 25 °C, purchased from Sigma) solution to get an optical density OD600 = 0.13 (equal to the cells concentration approximately 1 × 10^8 CFU/mL). The obtained suspensions of the cells were next diluted 1:100 (v/v) in the MHB2 medium. One hundred µL of the cells’ suspension was finally loaded into the wells of plates prepared in advance, which contained 100 µL of two-fold dilutions of the tested agents (the final concentration of the bacterial cells in all wells was approximately 5 × 10^5 CFU/mL).
as §2, with “times. […]” for “times.”

Escherichia coli K12 = assay: Antimicrobial activity, microdilution MIC, E. coli; type: cell-based; settings: for MIC: Escherichia coli, K12, 24 h
Method: as §1, §3
as §2, with “times. […]” for “times.”

[4] = system: human keratinocytes (HaCaT cell line); assay: Cytotoxicity, MTT assay; type: cell-based; settings: Homo sapiens, HaCaT, read-out: HaCaT IC50
Method: To assess the cytotoxicity of QAS (IC50), the MTT assay on 96-well polystyrene plates was performed for human keratinocytes (HaCaT, Elabscience Biotechnology Inc., Houston, Texas, USA). The assay utilizes colorimetric determination of the cell metabolic activity and the color intensity reflects the number of live cells that can be measured spectrophotometrically. The cell line was cultured in a Dulbecco’s modified Eagle Medium (Invitrogen) supplemented with 10% fetal bovine serum (Sigma Aldrich) (v/v), 100 units/mL of penicillin, 100 μg/mL of streptomycin, and 2 mM L-glutamine and was stored at 37 °C in a humidified 5% CO2 incubator. Briefly, a day after plating of 500 cells per well, a series of concentrations (0.5–200 μg/mL) of the test compounds was applied. DMSO was added to the control cells at a final concentration of 1.0% (v/v), which was related to the maximal concentration of the solvent compounds used in the experiment. After 24 h of incubation with the QAS at 37 °C (humidified 5% CO2 incubator), a medium containing 1 mg/mL of MTT (3-(4,5-dimethylthiazol-2-yl)-2,5-diphenyltetrazolium bromide) was added to the wells up to a final concentration of 0.5 mg/mL. Subsequently, the plates were incubated at 37 °C for 4 h. Then, the medium was removed by suction, and the formazan product was solubilized with DMSO. The background absorbance at 630 nm was subtracted from that at 570 nm for each well (Epoch, BioTek Instruments, Winooski, VT, USA). Six replicates were conducted for each concentration. All experiments were repeated at least twice and the resulting IC50 values were calculated with GraFit 7 software (v. 7.0, Erithacus, Berkley, CA, USA).

[5] = system: Salmonella typhimurium TA98 strain; settings: TA98, no metabolic activation
Method: A Salmonella mutagenicity test was performed with Salmonella typhimurium TA98 strain (Xenometrics AG, Allschwil, Switzerland) without metabolic activation, following the procedure by Mortelmans and Zeiger [52], with modifications reported Golunski et al. [53] […] Subsequently, the mixture was centrifuged, bacterial pellet washed with 0.75% NaCl and resuspended in 300 µL of 0.75% NaCl solution containing 0.1 µmol each of histidine and biotin, and it was then spread on a glucose minimal (GM) plate. […] All experiments were performed in triplicate. The anticancer drug doxorubicin at 90 ng/plate with known mutagenic effect towards S. typhimurium TA98 was used as a positive control.

[6] = Solubility observed during assays; type: physicochemical; settings: observed during antimicrobial assays; DMSO used for solubilisation
[7] = MIC90, 24 h, RPMI, read-out: MIC C. albicans ATCC 10231
[8] = MIC90, 24 h, RPMI, read-out: MIC C. glabrata DSMZ 11226
[9] = MIC90, 24 h, MHB2, read-out: MIC S. aureus ATCC 25923
[10] = MIC90, 24 h, MHB2, read-out: MIC E. coli K12
[11] = read-out: MIC C. albicans ATCC 10231, MIC90, 24 h, RPMI
[12] = read-out: MIC C. glabrata DSMZ 11226, MIC90, 24 h, RPMI
[13] = read-out: MIC S. aureus ATCC 25923, MIC90, 24 h, MHB2
[14] = read-out: MIC E. coli K12, MIC90, 24 h, MHB2

Row | SMILES | MIC [1, 7] [µg/mL] | MIC C. albicans ATCC 10231 ([1]; MIC90, 24 h, RPMI) [µg/mL] | MIC C. glabrata DSMZ 11226 ([2]; MIC90, 24 h, RPMI) [µg/mL] | MIC [2, 8] [µg/mL] | MIC S. aureus ATCC 25923 ([3]; MIC90, 24 h, MHB2) [µg/mL] | MIC [3, 9] [µg/mL] | MIC (Escherichia coli K12; [10]) [µg/mL] | MIC E. coli K12 (Escherichia coli K12; MIC90, 24 h, MHB2) [µg/mL] | IC50 ([4]; MTT, 24 h incubation) [µg/mL] | Number of Revertants ([5]; concentration 4 µg/plate) | Number of Revertants ([5]; concentration 20 µg/plate) | Number of Revertants ([5]; concentration 100 µg/plate) | Number of Revertants ([5]; concentration 500 µg/plate) | Number of Revertants ([5]; concentration 2000 µg/plate) | also measured
1 | NC(=O)c1ccc[n+](C2COC3C2OCC3[n+]2cccc(C(N)=O)c2)c1 (as salt: methanesulfonate) [QAS 5, N,N’-(1,4:3,6-Dianhydro-2,5-dideoxy-L-iditol-2,5-diyl)-bis[(3-carboxamide)pyridinium] Ditrifluoromethanesulfonate] |  |  |  |  |  |  |  |  |  |  |  |  |  |  | melting point: 63.5 to 65.2 °C
2 | c1cc[n+](C2COC3C2OCC3[n+]2ccccc2)cc1 (stereo not shown) [QAS 3] | > 4000 | >4096 | >4096 | > 4000 | >4096 | > 4000 | > 4000 | >4096 | > 100 | 7.3 ± 2.5 | 11.0 ± 1.0 | 10.6 ± 2.1 | 8.7 ± 1.5 | 7.3 ± 2.5 | 
3 | CN(C)c1cc[n+](C2COC3C2OCC3[n+]2ccc(N(C)C)cc2)cc1 (stereo not shown) [QAS 4] | > 4000 | >4096 | >4096 | > 4000 | >4096 | > 4000 | > 4000 | >4096 | > 100 | 8.3 ± 0.6 | 9.7 ± 1.5 | 10.0 ± 2.6 | 7.0 ± 3.5 | 6.0 ± 2.6 | 
4 | NC(=O)c1ccc[n+](C2COC3C2OCC3[n+]2cccc(C(N)=O)c2)c1 [QAS 5, N,N’-(1,4:3,6-Dianhydro-2,5-dideoxy-L-iditol-2,5-diyl)-bis[(3-carboxamide)pyridinium] Ditrifluoromethanesulfonate] | > 4000 | >4096 | >4096 | > 4000 | >4096 | > 4000 | > 4000 | >4096 | > 100 | 14.3 ± 5.5 | 8.0 ± 3.5 | 12.0 ± 2.0 | 12.7 ± 2.5 | 11.0 ± 1.7 | 
5 | Cn1cc[n+](C2COC3C2OCC3[n+]2ccn(C)c2)c1 [QAS 6, N,N’-(1,4:3,6-Dianhydro-2,5-dideoxy-L-iditol-2,5-diyl)-bis(N-methylimidazolium) Ditrifluoromethanesulfonate] | > 4000 | >4096 | >4096 | > 4000 | >4096 | > 4000 | > 4000 | >4096 | > 100 | 13.3 ± 3.2 | 10.0 ± 2.0 | 9.0 ± 3.6 | 16.0 ± 6.2 | 13.7 ± 2.9 | 
6 | C[N+](C)(C)C1COC2C1OCC2[N+](C)(C)C (stereo not shown) [QAS 7] |  | >4096 | >4096 |  | >4096 |  |  | >4096 |  | 11.0 ± 3.0 | 10.7 ± 4.9 | 11.3 ± 3.5 | 13.7 ± 1.5 | 11.3 ± 3.2 | MIC [1, 11]: > 4000 µg/mL; MIC [2, 12]: > 4000 µg/mL; MIC [3, 13]: > 4000 µg/mL; MIC (Escherichia coli K12; [14]): > 4000 µg/mL; IC50 ([4]; 24 h): > 100 µg/mL
7 | CCCCCC[N+](C)(C)C1COC2C1OCC2[N+](C)(C)CCCCCC [QAS 8, N,N’-(1,4:3,6-Dianhydro-2,5-dideoxy-L-iditol-2,5-diyl)-bis(N,N-dimethyl-N-hexylammonium) Ditrifluoromethanesulfonate] |  |  | 2048 |  | 2048 |  |  | >4096 |  | 14.7 ± 5.1 | 15.7 ± 1.5 | 11.0 ± 7.5 | 12.3 ± 3.5 | 12.7 ± 3.2 | MIC [1, 11]: > 4000 µg/mL; MIC [2, 12]: > 4000 µg/mL; MIC [3, 13]: > 4000 µg/mL; MIC (Escherichia coli K12; [14]): > 4000 µg/mL; IC50 ([4]; 24 h): > 100 µg/mL; Solubility in water [6]: lower solubility in water
